Measured values from patent publication US20110112101A1, “TREATMENT FOR OCULAR-RELATED DISORDERS” (SANOFI-AVENTIS, priority 2009, published 2011).

Tested on: laser induced plaque on the retina (model of wet AMD)
Experiment: laser induced model of macular degeneration in the rat
Type: in vivo
Details: for % Inhibition of Plaque: krypton laser injury of retina
Description: Several models of wet AMD are available in the rodent and rabbit. The pre-clinical efficacy of the compound of Formula I was assessed in a laser induced model of macular degeneration in the rat. In this model, injury is induced on the retina of the rat by a focused laser beam. This injury results in vascularization and inflammation, and the subsequent formation of a plaque on the retina that is associated with loss of vision. The ability of treatments with a compound of Formula Ito inhibit the size and thickness of such plaques serves as an indicator for the potential for the treatment of wet AMD patients. A krypton laser was used to irradiate the retina of a rat eye at 75 microns for 0.1 seconds, at each of 3-4 spots. From days 1 to 14, the irradiated rats were dosed twice a day with the compound of Formula I perorally (bid PO). Doses used were 3 mg/kg, 10 mg/kg, and 30 mg/kg body weight. An additional treatment group was given the vehicle for the oral compound, also bid PO administration. A positive control was used with 0.5 mg triamcinolone delivered to the intraocular subtendon. At 14 days after such irradiation, the rat was perfused with FITC-dextran (fluorescein isothiocyanate dextran) and the eyes were removed for evaluation. Evaluation was by fundoscopy and fluorescein angiography.

CCc1c(-c2ccc(C(C)(C)O)cc2)[nH]c2nccnc12 [compound of Formula I, 2-[4-(7-Ethyl-5H-pyrrolo[2,3-b]pyrazin-6-yl)-phenyl]-propan-2-ol]
% Inhibition of Plaque (3 mg/kg bid PO days 1 to 14, evaluated at 14 days): 12% | % Inhibition of Plaque (10 mg/kg bid PO days 1 to 14, evaluated at 14 days): 36% | % Inhibition of Plaque (30 mg/kg bid PO days 1 to 14, evaluated at 14 days): 33% | plaque thickness (laser induced model, 30 and 10 mg/kg bid PO): significantly reduced plaque thickness | results compared with positive control triamcinolone (laser induced model, 30 and 10 mg/kg bid PO versus 0.5 mg triamcinolone): significantly better

C[C@]12C=CC(=O)C=C1CC[C@H]1[C@@H]3C[C@@H](O)[C@](O)(C(=O)CO)[C@@]3(C)C[C@H](O)[C@@]12F [triamcinolone, reference compound]
% Inhibition of Plaque (positive control 0.5 mg delivered to the intraocular subtendon, evaluated at 14 days): 26%
